# Read-outs that look alike come from different tables or passages of the source.
# What was measured:
# [1] = test system: vesicular stomatitis virus; conditions: approximately 5 minutes irradiation at 9 mW/cm^2, 8.2 µg/ml AMT; cited from earlier work
# Herpes virus = conditions: cited from earlier work; for photoinactivation: in 0.9 minutes, 10 ug/ml, 1.2 mW/cm^2 long-wave ultraviolet light
# [2] = test system: vesicular stomatitis virus; conditions: 9 mW/cm^2 long-wave ultraviolet light; sufficient for inactivation; cited from earlier work
# [3] = test system: Vesicular stomatitis virus (VSV); conditions: cited from earlier work; for effectiveness in photoinactivation compared with TMP: 0.7 mW/cm^2 long-wave UV light; for light dose response in the inactivation of VSV: 20-30 µg/ml
# [4] = test system: Western equine encephalitis virus (WEE, an RNA virus); conditions: cited from earlier work
# [5] = test system: cell-free influenza virus; conditions: 1.2 mW/cm^2, cited from earlier work
# influenza virus = conditions: cited from earlier work
# [6] = test system: herpes simplex virus (a DNA virus); conditions: cited from earlier work
# [7] = test system: Intracellular influenza virus; conditions: 10 µg/ml of AMT, 1.2 mW/cm^2; cited from earlier work
# [8] = test system: reovirus (a double-stranded RNA virus); conditions: cited from earlier work
# Moloney sarcoma virus = conditions: cited from earlier work
# [9] = test system: tobacco mosaic virus (TMV); conditions: 100 mW/cm^2 long-wave ultraviolet light; AMT and HMT indistinguishable; cited from earlier work
# Rous sarcoma virus = conditions: cited from earlier work
# Graffi virus = conditions: cited from earlier work
# [10] = test system: leukemic cells obtained by infection of mice with Graffi's leukemia virus; conditions: cited from earlier work
# [11] = cited from earlier work
# Teschen disease virus = conditions: cited from earlier work
# fowl pox virus = conditions: cited from earlier work
# canine hepatitis virus = conditions: cited from earlier work
# HTLV-III = assay type: cell-based, Human Tumor Leukemia Virus (HTLV) III
# [12] = test system: foot-and-mouth disease virus; conditions: cited from earlier work
# NewCastle disease virus = conditions: cited from earlier work
# pseudorabies = conditions: cited from earlier work
# [13] = at higher psoralen derivative concentrations
# [14] = 30 minutes at 11.5 mW/cm^2 ultraviolet light (365 mm), 10 µg/ml
# [15] = 30 minutes at 11.5 mW/cm^2 ultraviolet light, 10 µg/ml
# [16] = on a molar basis, within TMP solubility range
structure (smiles),measurement,setting,value
"Cc1oc2c(C)c3oc(=O)cc(C)c3cc2c1CN [AMT, 4'-aminomethyl 4,5',8-trimethyl-psoralen]",reduction of viral RNA polymerase activity,[1],100 -fold
same,effectiveness compared with HMT,"Herpes virus; at lower concentrations of the psoralen derivatives, 1.2 mW/cm^2",always more effective than an equal amount of HMT
same,photoinactivation,Herpes virus,10^4 -fold
same,photoreaction with viral RNA,[2],photoreact only with a single base (cytosine)
same,effectiveness in photoinactivation compared with TMP,[3],a thousand times more effective than TMP
same,"photoinactivation of VSV, comparison of derivatives","[3]; 2-3 µg/ml, 0.7 mW/cm^2",superior to HMT and MMT
same,light dose response in the inactivation of VSV,[3]; 0.7 mW/cm^2,equivalent with respect to light dose response
same,inactivation,"[4]; approximately 5 minutes of irradiation at 1.9 mW/cm^2, 10 µg/ml AMT",10^8 -fold
same,inactivation rates compared with TMP,[4]; [13],superior inactivation rates
same,rate of inactivation compared with equivalent amounts of HMT,[5]; at all psoralen concentrations,more rapidly inactivated
same,inactivation,"[5]; in 1 minute, 10 µg/ml of AMT",10 -fold
same,reduction of viral RNA polymerase activity,"influenza virus; approximately 5 minutes irradiation at 9 mW/cm^2, 8.2 µg/ml AMT",100 -fold
same,inactivation rates compared with TMP,[6]; [13],superior inactivation rates
same,time required for a 10^7-fold inactivation,[7],4 minutes
same,reduction of infectivity,"[8]; 15 minutes irradiation at 9 mW/cm^2, AMT 2.8 x 10^-4 M = 82 ug/ml",> 10^4 -fold
same,inactivation,Moloney sarcoma virus,10 -fold
same,effect on translational activity compared with TMP,[9],slightly greater than the effects of TMP
"Cc1oc2c(C)c3oc(=O)cc(C)c3cc2c1CO [HMT, 4'-hydroxymethyl 4,5',8-trimethyl-psoralen]",photoinactivation,Herpes virus,10^4 -fold
same,effectiveness in photoinactivation compared with TMP,[3],a thousand times more effective than TMP
same,light dose response in the inactivation of VSV,[3]; 0.7 mW/cm^2,equivalent with respect to light dose response
same,less effective than AMT in the photoinactivation of influenza virus,influenza virus; same conditions as AMT (9 mW/cm^2),about 10 -fold
same,inactivation,Rous sarcoma virus,10^4 -fold
same,reduction of infectivity,"[8]; 20 minutes of irradiation at 9 mW/cm^2, HMT 2.8 x 10^-4 M = 72 µg/ml",5 -fold
same,effect on translational activity compared with TMP,[9],slightly greater than the effects of TMP
"COCc1c(C)oc2c(C)c3oc(=O)cc(C)c3cc12 [MMT, 4'-methoxymethyl 4,5',8-trimethyl-psoralen]",effectiveness in photoinactivation compared with TMP,[3],a thousand times more effective than TMP
same,light dose response in the inactivation of VSV,[3]; 0.7 mW/cm^2,equivalent with respect to light dose response
Cc1c2occc2cc2ccc(=O)oc12 [8-methyl-psoralen],properties of the [intracellular] Graffi virus,Graffi virus; [14],remained unchanged
same,effect on leukemic cells (ability to replicate or induce leukemia in adult mice),[10]; [15],killed the cells
"Cc1cc2cc3c(C)cc(=O)oc3c(C)c2o1 [TMP, 4,5',8-tri-methylpsoralen]",solubility range,[11],0 to 1 µg/mL
same,effectiveness in photoinactivation compared with AMT,[4]; [16],more effective
same,effectiveness in photoinactivation compared with AMT,[6]; [16],more effective
"Cc1coc2c(C)c3oc(=O)cc(C)c3cc12 [4,4',8-trimethylpsoralen]",properties of the [intracellular] Graffi virus,Graffi virus; [14],remained unchanged
same,effect on leukemic cells (ability to replicate or induce leukemia in adult mice),[10]; [15],killed the cells
"O=c1ccc2cc3ccoc3cc2o1 [psoralen, Psoralen]",irradiation resisted by the virus,Teschen disease virus,up to 120 minutes
same,properties of the [intracellular] Graffi virus,Graffi virus,remained unchanged
same,photoinactivation,fowl pox virus,photoinactivated
same,photoinactivation,canine hepatitis virus,photoinactivated
same,HTLV-III titers,HTLV-III,1 x 10^5 FFU/mL
same,infectious HTLV-III recovered,HTLV-III,no infectious HTLV-III was recovered
same,RSV inactivated,Rous sarcoma virus,approximately 1 x 10^5 FFU/ml
same,irradiation resisted by the virus,[12],up to 120 minutes
same,irradiation resisted by the virus,NewCastle disease virus,up to 120 minutes
same,photoinactivation,pseudorabies,photoinactivated
same,effect on leukemic cells (ability to replicate or induce leukemia in adult mice),[10],killed the cells
